In patent publication US10273461B2, “Employing human adipose-derived stem cells to propagate serum-derived hepatitis C virus and use thereof” (FRONTIER BIO-DRUG DEVELOPMENT LIMITED, priority 2015, dated 2019):

test system: HCVser-1b; assay: Drug inhibition assay in HCVser-infected hADSC; assay type: cell-based, hepatitis C virus; details: p4-5 hADSC, graded concentrations, 21 days' cell lysates, qRT-PCR, IFNα as 16 h pretreatment

| Compound | HCV replication (viral 5'-UTR transcripts, fraction inhibition vs vehicle control) |
| --- | --- |
| NC(=O)c1ncn([C@@H]2O[C@H](CO)[C@@H](O)[C@H]2O)n1 [ribavirin] | inhibited in a dose-responsive manner |
| IFNα | inhibited in a dose-responsive manner |
| cyclosporine A | inhibited in a dose-responsive manner |
